# From ChEMBL document CHEMBL4823249, “Discovery of a Pyrimidinedione Derivative as a Potent and Orally Bioavailable Axl Inhibitor” (J Med Chem, 2021)
# pIC50: −log10 of the molar value. Active and inactive are the calls of the source. The rule behind the calls is not given here.
# Legend:
# [1] = Half life in ICR mouse at 1 mg/kg, iv measured upto 24 hrs by LC-MS analysis; format: ADME, organism-based; conditions: in vivo
# [2] = target: Tyrosine-protein kinase receptor TYRO3 (Homo sapiens, UniProt Q06418); assay: Inhibition of recombinant human RSE (451 to end residues) using KVEKIGEGTYGVVYK as substrate incubated for 40 mins in presence of [gamma33P]ATP by scintillation counting based radiometry assay
# [3] = target: Platelet-derived growth factor receptor beta (Homo sapiens, UniProt P09619); assay: Inhibition of human PDGFRbeta (557 to end residues) using poly(Glu, Tyr) 4:1 as substrate measured after 40 mins in presence of [gamma33P]ATP by scintillation counting based radiometry assay
# [4] = target: Epidermal growth factor receptor (Homo sapiens, UniProt P00533); assay: Inhibition of recombinant human EGFR (696 to end residues) using poly(Glu, Tyr) 4:1 as substrate incubated for 40 mins in presence of [gamma-33ATP] by scintillation counting based radiometry assay
# [5] = target: Receptor tyrosine-protein kinase erbB-4 (Homo sapiens, UniProt Q15303); assay: Inhibition of recombinant human ERBB4 (706 to 991 residues) using poly(Glu, Tyr) 4:1 as substrate incubated for 40 mins in presence of [gamma-33ATP] by scintillation counting based radiometry assay
# Chain of Receptor tyrosine-protein kinase erbB-4 (Q15303 whole entry, the tested form may be a part): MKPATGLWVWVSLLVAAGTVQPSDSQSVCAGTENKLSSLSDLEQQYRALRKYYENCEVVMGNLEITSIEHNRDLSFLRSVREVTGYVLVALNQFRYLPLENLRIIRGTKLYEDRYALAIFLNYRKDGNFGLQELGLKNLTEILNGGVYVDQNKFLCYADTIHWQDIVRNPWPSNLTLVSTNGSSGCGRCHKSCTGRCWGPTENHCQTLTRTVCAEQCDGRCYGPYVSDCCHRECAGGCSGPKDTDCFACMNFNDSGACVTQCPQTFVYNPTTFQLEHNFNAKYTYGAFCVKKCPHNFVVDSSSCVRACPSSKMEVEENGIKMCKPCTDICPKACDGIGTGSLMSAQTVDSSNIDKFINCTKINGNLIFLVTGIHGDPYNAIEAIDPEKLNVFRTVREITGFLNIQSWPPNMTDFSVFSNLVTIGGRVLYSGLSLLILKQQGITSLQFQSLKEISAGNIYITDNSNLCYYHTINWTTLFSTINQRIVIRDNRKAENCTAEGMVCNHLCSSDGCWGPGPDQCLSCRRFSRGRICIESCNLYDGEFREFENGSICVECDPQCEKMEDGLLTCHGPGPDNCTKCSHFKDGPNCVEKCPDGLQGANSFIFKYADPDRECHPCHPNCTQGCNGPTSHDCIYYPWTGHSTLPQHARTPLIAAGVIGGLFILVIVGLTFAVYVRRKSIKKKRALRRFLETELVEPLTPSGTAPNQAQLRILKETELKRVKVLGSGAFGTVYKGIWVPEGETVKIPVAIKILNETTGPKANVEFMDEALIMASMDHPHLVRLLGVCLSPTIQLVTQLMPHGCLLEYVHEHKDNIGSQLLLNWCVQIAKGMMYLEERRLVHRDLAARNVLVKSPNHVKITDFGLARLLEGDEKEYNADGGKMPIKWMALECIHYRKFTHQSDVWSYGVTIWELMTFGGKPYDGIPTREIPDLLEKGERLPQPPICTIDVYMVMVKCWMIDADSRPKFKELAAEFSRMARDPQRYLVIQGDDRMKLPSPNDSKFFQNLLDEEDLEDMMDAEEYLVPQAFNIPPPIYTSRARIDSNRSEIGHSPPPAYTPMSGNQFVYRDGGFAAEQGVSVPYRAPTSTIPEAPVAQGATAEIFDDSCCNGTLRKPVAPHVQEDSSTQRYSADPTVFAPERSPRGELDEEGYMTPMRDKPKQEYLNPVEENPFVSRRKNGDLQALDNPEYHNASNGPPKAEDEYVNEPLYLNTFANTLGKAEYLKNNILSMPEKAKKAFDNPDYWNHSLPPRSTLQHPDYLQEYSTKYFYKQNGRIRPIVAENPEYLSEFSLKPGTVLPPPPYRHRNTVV
# [6] = target: Tyrosine-protein kinase ABL1 (Homo sapiens, UniProt P00519); assay: Inhibition of human recombinant ABL (27 to end residues) using EAIYAAPFAKKK as substrate incubated for 40 mins in presence of [gamma33P-ATP] by radiometric scintillation counting analysis
# Chain of Tyrosine-protein kinase ABL1 (P00519 whole entry, the tested form may be a part): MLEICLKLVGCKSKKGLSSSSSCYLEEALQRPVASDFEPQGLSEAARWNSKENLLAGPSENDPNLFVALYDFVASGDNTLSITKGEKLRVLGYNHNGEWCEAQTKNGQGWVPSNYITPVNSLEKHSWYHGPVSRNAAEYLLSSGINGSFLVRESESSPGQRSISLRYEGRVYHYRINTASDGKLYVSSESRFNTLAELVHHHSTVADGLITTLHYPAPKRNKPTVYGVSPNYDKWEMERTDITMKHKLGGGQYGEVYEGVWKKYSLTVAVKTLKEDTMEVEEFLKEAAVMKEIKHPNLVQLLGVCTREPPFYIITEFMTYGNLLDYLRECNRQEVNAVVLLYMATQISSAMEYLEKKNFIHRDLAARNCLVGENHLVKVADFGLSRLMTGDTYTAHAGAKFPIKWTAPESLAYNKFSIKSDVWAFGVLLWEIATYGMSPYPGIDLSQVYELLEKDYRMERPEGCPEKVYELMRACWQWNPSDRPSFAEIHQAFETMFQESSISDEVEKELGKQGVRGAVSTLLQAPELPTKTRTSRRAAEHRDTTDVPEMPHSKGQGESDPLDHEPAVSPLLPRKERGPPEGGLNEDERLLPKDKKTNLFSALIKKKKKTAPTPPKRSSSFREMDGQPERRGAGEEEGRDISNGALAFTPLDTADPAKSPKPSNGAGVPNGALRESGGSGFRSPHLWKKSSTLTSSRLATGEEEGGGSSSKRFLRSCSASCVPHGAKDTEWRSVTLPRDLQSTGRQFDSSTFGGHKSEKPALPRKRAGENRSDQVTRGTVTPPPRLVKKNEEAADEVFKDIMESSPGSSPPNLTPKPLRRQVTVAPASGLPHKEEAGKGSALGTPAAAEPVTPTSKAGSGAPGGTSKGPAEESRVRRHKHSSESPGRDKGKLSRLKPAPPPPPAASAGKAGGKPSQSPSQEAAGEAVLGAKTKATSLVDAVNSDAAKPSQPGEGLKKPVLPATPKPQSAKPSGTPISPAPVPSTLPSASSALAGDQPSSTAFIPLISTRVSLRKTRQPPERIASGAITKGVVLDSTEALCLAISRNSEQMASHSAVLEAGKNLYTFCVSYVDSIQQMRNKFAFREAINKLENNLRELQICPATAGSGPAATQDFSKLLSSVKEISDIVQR
# Ephrin type-A receptor 2 = Ephrin type-A receptor 2 (Homo sapiens, UniProt P29317); assay: Inhibition of recombinant human EphA2 (596 to 900 residues) using poly(Glu, Tyr) 4:1 as substrate incubated for 40 mins in presence of [gamma-33ATP] by scintillation counting based radiometry assay
# [7] = target: Serine/threonine-protein kinase A-Raf (Homo sapiens, UniProt P10398); assay: Inhibition of recombinant human A-Raf (273 to end residues) using myelin basic protein as substrate incubated for 40 mins in presence of [gamma-33ATP] by scintillation counting based radiometry assay
# Chain of Serine/threonine-protein kinase A-Raf (P10398 whole entry, the tested form may be a part): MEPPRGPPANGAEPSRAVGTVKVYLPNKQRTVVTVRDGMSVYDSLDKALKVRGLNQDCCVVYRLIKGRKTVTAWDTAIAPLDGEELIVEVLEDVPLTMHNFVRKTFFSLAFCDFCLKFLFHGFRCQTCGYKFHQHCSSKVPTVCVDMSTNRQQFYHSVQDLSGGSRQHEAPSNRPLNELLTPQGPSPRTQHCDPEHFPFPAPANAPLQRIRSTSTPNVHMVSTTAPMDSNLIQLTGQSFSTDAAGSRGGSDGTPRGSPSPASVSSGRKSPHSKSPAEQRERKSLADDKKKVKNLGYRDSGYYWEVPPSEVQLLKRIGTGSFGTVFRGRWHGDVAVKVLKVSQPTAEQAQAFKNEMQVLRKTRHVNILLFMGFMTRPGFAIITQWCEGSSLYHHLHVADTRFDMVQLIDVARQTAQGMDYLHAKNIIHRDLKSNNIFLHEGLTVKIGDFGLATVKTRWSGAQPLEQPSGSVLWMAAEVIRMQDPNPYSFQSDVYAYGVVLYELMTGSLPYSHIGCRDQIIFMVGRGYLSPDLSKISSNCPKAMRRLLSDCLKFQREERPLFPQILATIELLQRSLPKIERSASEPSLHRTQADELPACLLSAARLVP
# Focal adhesion kinase 1 = Focal adhesion kinase 1 (Homo sapiens, UniProt Q05397); assay: Inhibition of human recombinant FAK1 (411 to 686 residues) using EEEEYEEEEEEYY as substrate incubated for 40 mins in presence of [gamma-33ATP] by radiometric scintillation counting analysis
# [8] = target: Mitogen-activated protein kinase 1 (Homo sapiens, UniProt P28482); assay: Inhibition of human full length recombinant ERK2 using myelin basic protein as substrate incubated for 40 mins in presence of [gamma33P-ATP] by radiometric scintillation counting analysis
# Chain of Mitogen-activated protein kinase 1 (P28482 whole entry): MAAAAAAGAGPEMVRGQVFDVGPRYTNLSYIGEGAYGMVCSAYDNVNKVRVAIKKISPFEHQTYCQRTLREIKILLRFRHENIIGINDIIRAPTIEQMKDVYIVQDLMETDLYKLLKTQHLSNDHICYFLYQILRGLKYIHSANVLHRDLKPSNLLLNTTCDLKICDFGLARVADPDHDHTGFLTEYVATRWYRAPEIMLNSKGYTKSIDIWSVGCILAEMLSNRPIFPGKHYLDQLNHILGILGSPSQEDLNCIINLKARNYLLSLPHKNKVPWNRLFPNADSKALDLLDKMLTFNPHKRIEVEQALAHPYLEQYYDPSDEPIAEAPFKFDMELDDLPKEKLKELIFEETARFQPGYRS
# [9] = target: Serine/threonine-protein kinase mTOR (Homo sapiens, UniProt P42345); assay: Inhibition of full length recombinant human mTOR incubated for 40 mins in presence of [gamma-33ATP] by scintillation counting based radiometry assay
# [10] = target: Tyrosine-protein kinase SYK (Homo sapiens, UniProt P43405); assay: Inhibition of recombinant human full length SYK using poly(Glu, Tyr) 4:1 as substrate incubated for 40 mins in presence of [gamma33P]ATP by scintillation counting based radiometry assay
# [11] = target: T1, Hepatocyte growth factor receptor (Homo sapiens, UniProt P08581); assay: Inhibition of MET signaling in human MKN45 cells assessed as reduction in phosphorylation of MET after 2 hrs by Western blotting analysis; format: cell-based; conditions: MKN-45, dose 10-100 nM
# T1 sequence (P08581 whole entry): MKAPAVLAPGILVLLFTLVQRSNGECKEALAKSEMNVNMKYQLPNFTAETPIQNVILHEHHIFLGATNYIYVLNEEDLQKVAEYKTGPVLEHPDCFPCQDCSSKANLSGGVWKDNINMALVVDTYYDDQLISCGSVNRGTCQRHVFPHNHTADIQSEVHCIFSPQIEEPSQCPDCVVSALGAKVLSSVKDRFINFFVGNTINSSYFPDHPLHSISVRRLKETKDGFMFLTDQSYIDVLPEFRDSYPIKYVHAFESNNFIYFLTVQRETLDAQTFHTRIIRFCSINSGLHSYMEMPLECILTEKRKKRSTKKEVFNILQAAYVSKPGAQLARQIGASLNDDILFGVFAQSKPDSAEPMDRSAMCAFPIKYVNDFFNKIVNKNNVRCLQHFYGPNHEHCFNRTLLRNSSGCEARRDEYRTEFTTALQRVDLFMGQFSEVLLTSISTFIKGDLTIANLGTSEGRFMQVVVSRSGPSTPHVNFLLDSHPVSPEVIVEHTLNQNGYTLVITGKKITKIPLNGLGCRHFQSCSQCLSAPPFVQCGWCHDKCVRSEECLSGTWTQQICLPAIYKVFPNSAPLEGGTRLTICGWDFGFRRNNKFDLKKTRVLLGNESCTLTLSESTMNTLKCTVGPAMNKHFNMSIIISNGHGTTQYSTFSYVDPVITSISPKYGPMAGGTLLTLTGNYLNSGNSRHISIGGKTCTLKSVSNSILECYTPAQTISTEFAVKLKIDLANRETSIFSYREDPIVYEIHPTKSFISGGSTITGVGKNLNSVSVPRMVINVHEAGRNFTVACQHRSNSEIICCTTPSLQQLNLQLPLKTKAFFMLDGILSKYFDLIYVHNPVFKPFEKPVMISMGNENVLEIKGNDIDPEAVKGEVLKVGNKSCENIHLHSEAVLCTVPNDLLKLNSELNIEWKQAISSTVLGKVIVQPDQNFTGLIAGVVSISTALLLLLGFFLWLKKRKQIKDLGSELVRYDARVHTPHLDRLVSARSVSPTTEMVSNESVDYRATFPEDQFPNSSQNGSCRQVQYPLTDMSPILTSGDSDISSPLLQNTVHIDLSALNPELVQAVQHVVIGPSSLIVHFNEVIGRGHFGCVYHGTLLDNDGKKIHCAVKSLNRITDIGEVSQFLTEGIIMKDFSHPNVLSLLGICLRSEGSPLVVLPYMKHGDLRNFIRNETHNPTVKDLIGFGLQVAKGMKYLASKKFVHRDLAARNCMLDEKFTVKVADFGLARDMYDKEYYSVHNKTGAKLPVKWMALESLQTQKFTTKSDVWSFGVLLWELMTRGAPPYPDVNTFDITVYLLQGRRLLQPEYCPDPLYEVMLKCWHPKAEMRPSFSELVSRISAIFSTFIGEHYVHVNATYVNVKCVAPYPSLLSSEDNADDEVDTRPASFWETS
# [12] = target: T1, Hepatocyte growth factor receptor; assay: Inhibition of MET signaling in human MKN45 cells assessed as reduction in phosphorylation of AKT after 2 hrs by Western blotting analysis; format: cell-based; conditions: MKN-45, dose 10-100 nM
# [13] = target: T1, Hepatocyte growth factor receptor; assay: Inhibition of MET signaling in human MKN45 cells assessed as reduction in phosphorylation of ERK after 2 hrs by Western blotting analysis; format: cell-based; conditions: MKN-45, dose 10-100 nM
# [14] = target: T1, Hepatocyte growth factor receptor; assay: Inhibition of MET signaling in human EBC1 cells assessed as reduction in phosphorylation of MET after 2 hrs by Western blotting analysis; format: cell-based; conditions: EBC-1, dose 10-100 nM
# [15] = target: T1, Hepatocyte growth factor receptor; assay: Inhibition of MET signaling in human EBC1 cells assessed as reduction in phosphorylation of AKT after 2 hrs by Western blotting analysis; format: cell-based; conditions: EBC-1, dose 10-100 nM
# NCI-H1299 = assay: Antiproliferative activity against human NCI-H1299 cells incubated for 72 hrs by SRB or CCK8 assay; format: functional, cell-based; conditions: NCI-H1299, 72 h
# BT-549 = assay: Antiproliferative activity against human BT-549 cells incubated for 72 hrs by SRB or CCK8 assay; format: functional, cell-based; conditions: BT-549, 72 h
# KMS-11 = assay: Antiproliferative activity against human KMS-11 cells incubated for 72 hrs by SRB or CCK8 assay; format: functional, cell-based; conditions: KMS-11, 72 h
# HCC4006 = assay: Antiproliferative activity against human HCC4006 cells incubated for 72 hrs by SRB or CCK8 assay; format: functional, cell-based; conditions: HCC4006, 72 h
# SNU-449 = assay: Inhibition of Gas6-stimulated cell invasion in human SNU-449 cells at […] after 24 hrs by crystal violet staining based microscopic analysis; format: functional; conditions: dose lower 5.0 µM
# BaF3 [16] = assay: Antitumor activity against mouse BaF3/TEL-AXL cells xenografted in BALB/c nude mouse assessed as tumor growth inhibition at 1 mg/kg, po administered once daily for 14 days by caliper method; format: functional; conditions: 336 h, time 14 day, read-out: TGI
# BaF3 [17] = assay: Antitumor activity against mouse BaF3/TEL-AXL cells xenografted in BALB/c nude mouse assessed as tumor growth inhibition at 5 mg/kg, po administered once daily for 14 days by caliper method; format: functional; conditions: 336 h, time 14 day, read-out: TGI
# U-87 MG [18] = assay: Antitumor activity against human U-87MG cells xenografted in BALB/c nude mouse assessed as tumor growth inhibition at 5 mg/kg, po administered once daily for 14 days by caliper method; format: functional, U-87MG ATCC; conditions: 336 h, time 14 day, read-out: TGI
# U-87 MG [19] = assay: Antitumor activity against human U-87MG cells xenografted in BALB/c nude mouse assessed as tumor growth inhibition at 25 mg/kg, po administered once daily for 14 days by caliper method; format: functional, U-87MG ATCC; conditions: 336 h, time 14 day, read-out: TGI
smiles,measurement,setting,value
CC(C)n1cc(C(=O)Nc2ccc(Oc3ccnc(NC(=O)C4CC4)c3)c(F)c2)c(=O)n(-c2ccc(F)cc2)c1=O,half-life,[1],5.57 h
same,pIC50,[2],9.00
same,pIC50,[3],< 6.00
same,pIC50,[4],< 6.00
same,pIC50,[5],< 6.00
same,pIC50,[6],< 6.00
same,pIC50,Ephrin type-A receptor 2,< 7.00
same,pIC50,[7],< 6.00
same,pIC50,Focal adhesion kinase 1,< 6.00
same,pIC50,[8],< 6.00
same,pIC50,[9],< 6.00
same,pIC50,[10],< 7.00
same,inhibition,[11],Dose-Dependent Effect
same,inhibition,[12],Dose-Dependent Effect
same,inhibition,[13],Dose-Dependent Effect
same,inhibition,[14],Dose-Dependent Effect
same,inhibition,[15],Dose-Dependent Effect
same,pIC50,NCI-H1299,< 5.00
same,pIC50,BT-549,< 5.00
same,pIC50,KMS-11,< 5.00
same,pIC50,HCC4006,< 5.00
same,inhibition,SNU-449,Active
same,inhibition in vivo at 1 mg/kg,BaF3 [16],90.9%
same,inhibition in vivo at 5 mg/kg,BaF3 [17],106%
same,inhibition in vivo at 5 mg/kg,U-87 MG [18],62.3%
same,inhibition in vivo at 25 mg/kg,U-87 MG [19],89.8%
